Experimental findings from PubChem BioAssay (NCI) are described below.

Test in all cases: DTP human tumour cell line panel, 48 h
In assay [1] the test system is RPMI-8226 leukemia.
In assay [2] the test system is NCI-H226 lung.
Assay [3] deals with MALME-3M melanoma.
Assay [4] concerns UACC-62 melanoma.
Assay [5] has as its system HCT-116 colon.
Assay [6] deals with KM12 colon.
The test system of assay [7] is SK-MEL-5 melanoma.
For assay [8], the system named is CCRF-CEM leukemia.
Assay [9] deals with RXF 393 renal.

Structures are written as SMILES.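 The compound was tested at five concentrations on cells cultured in 96-well plates, with a 48-hour exposure period. GI50: concentration for 50% inhibition of growth. TGI: concentration producing complete growth inhibition.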

Turning to `COC(=O)C1=C(c2ccc(Cl)cc2)C(O)N=C(NN)N1` (configuration not stated), the TGI in [1], in assay [2], in assay [3], in assay [4], in assay [5] and in [6] was greater than 100 µM each time. The TGI in [7], in [8] and in assay [9] was greater than 100 µM each time.
With `N#CC(C(=O)CCC(=O)Nc1ccc(Cl)c(Cl)c1)c1ccc(Cl)cc1` (configuration not stated), the TGI in [1], in assay [2], in assay [3], in assay [4], in assay [5] and in assay [6] was greater than 100 µM throughout. Besides, the TGI in [7] and in assay [9] was greater than 100 µM throughout.
As to `OC1c2ccccc2C2C(O)c3ccccc3C12` (configuration not stated), the TGI in assay [1], in assay [3], in assay [4], in [6], in assay [7] and in assay [8] was greater than 100 µM throughout. The TGI in [9] was greater than 100 µM.
For `CC(=O)O[C@H]1CC[C@@]2(C)C(=C/C(=N\[N+](=O)[O-])[C@H]3C4CCC([C@H](C)CCCC(C)C)[C@@]4(C)CCC32)C1` (some centres not stated), the TGI in [1], in assay [2], in assay [3], in assay [4], in assay [5] and in assay [7] was greater than 100 µM each time. Moreover, the TGI in [9] is greater than 100 µM.
With `CC(=O)O/N=C/c1cc2c(cc1Br)OCO2`, the TGI in assay [1], in [3], in assay [4], in [6], in assay [7] and in [8] was greater than 349 µM throughout. The molecule also yielded a TGI in assay [9] greater than 349 µM.
Take `CCSC(=O)C1(C)OC2CCCCC2C1=O` (configuration not stated): the total growth inhibition concentration (TGI) in assay [1], in [2], in assay [3], in assay [4], in assay [5] and in [6] was greater than 100 µM each time. Further, the TGI in assay [7], in [8] and in [9] was greater than 100 µM throughout.
Consider `CC1(C)N=C(Oc2ccccc2)n2nccc2N1`, for which the TGI in [1], in [2], in [3], in assay [4], in assay [5] and in assay [6] was greater than 100 µM throughout. Also, the TGI in [7], in [8] and in [9] was greater than 100 µM each time.
Turning to `O=c1cc(-c2ccc(O)cc2)oc2cc(O)cc(O)c12`, the TGI is greater than 100 µM in assay [1]; 75.9 µM in assay [2]; 88.3 µM in assay [3]; greater than 100 µM in assay [4]; greater than 100 µM in assay [5]; 82.9 µM in assay [6]. For the same molecule, the TGI in [7] is 87.2 µM; in [8], greater than 100 µM.
On to `COC1(Cc2ccccc2)C(=O)c2ccccc2N1C(C)=O` (configuration not stated), for which the TGI in assay [1], in assay [4], in assay [5], in [6], in assay [8] and in assay [9] was greater than 100 µM in each case.
Regarding `Nc1ccc(C2=Nc3ccccc3SC(c3ccccc3O)C2)cc1` (configuration not stated), the TGI is 49.7 µM in assay [1]; greater than 100 µM in [2]; greater than 100 µM in [3]; greater than 100 µM in assay [4]; greater than 100 µM in assay [6]; greater than 100 µM in assay [7]. The TGI is 32.5 µM in assay [8] and greater than 100 µM in assay [9].
In the case of `O=C(NC1C=Nc2ccccc2NC1=O)c1ccccc1Cl` (configuration not stated), the TGI in assay [2], in assay [3], in assay [4], in assay [5], in assay [6] and in [7] was greater than 100 µM throughout. Moreover, the TGI in [8] is greater than 100 µM; in [9], 62.9 µM.
As for `CC#Cc1c(C#CC)c(OC)c2c(c1OC)C(=O)c1ccccc1C2=O`, the TGI was greater than 100 µM in assay [1]; greater than 100 µM in [3]; greater than 100 µM in [4]; 72.6 µM in assay [5]; greater than 100 µM in [6]; greater than 100 µM in assay [7]. The TGI is greater than 100 µM in assay [8] and 55.1 µM in assay [9].
For the molecule `CC(C)c1cccc(C(C)C)c1NC(=O)C(=O)C1SC(=S)NC1=O` (configuration not stated), the TGI in assay [1], in assay [2], in assay [3], in assay [4], in [5] and in [6] was greater than 100 µM each time. In addition, the TGI in assay [7], in assay [8] and in assay [9] was greater than 100 µM each time.
Regarding `CCCCCCCCCCCCCCCCCc1nnc(N)o1`, the concentration for total growth inhibition (TGI) in assay [1], in [2], in [3], in assay [4], in [5] and in [6] was greater than 100 µM each time.
Regarding `COc1cc2c(cc1OCCCCCn1c3ccccc3c3ccccc31)N=C[C@@H]1CCCN1C2=O`, the GI50 is 2.49 µM in [2]; 2.2 µM in assay [3]; 1.86 µM in assay [4]; 1.65 µM in [5]; 1.96 µM in assay [6]; 1.73 µM in [7]. The GI50 in assay [9] is 4.34 µM. The TGI in assay [2] is 8.48 µM; in [3], 4.72 µM; in assay [4], 3.8 µM; in assay [5], 3.33 µM; in assay [6] it was 3.74 µM; in assay [7] it was 3.15 µM. For the same molecule, the TGI in assay [9] is 16.4 µM.
For the molecule `O=C1NN=CN2C(=O)CCC12` (configuration not stated), the TGI in assay [1], in assay [4], in assay [5], in assay [6], in [7] and in assay [8] was greater than 100 µM each time. The molecule also showed a TGI in assay [9] greater than 100 µM.
For `CCOC(=O)c1cn(CC)c2cc3c(cc2c1=O)SCS3`, the TGI in assay [1], in [3], in [4], in [6], in assay [7] and in assay [8] was greater than 100 µM in each case. The molecule also showed a TGI in assay [9] greater than 100 µM.

One may read the TGI as the concentration giving total growth inhibition. Lower therefore signals greater sensitivity of the cells. One may read the GI50 as the concentration giving 50% growth inhibition.
